Reference: US8748459B2, “Pyridinoylpiperidines as 5-HT1F agonists” (Eli Lilly and Company, priority 2002, dated 2014)
pEC50: −log10 of the molar value.

Tested on: rabbit saphenous vein
Experiment: rabbit saphenous vein contraction
Procedure: Representative compounds of the present invention were tested in a rabbit saphenous vein contraction assay to measure their ability to mediate vasoconstriction. […] The tips of two 30-gauge stainless steel hypodermic needles bent into an L-shape were slipped into the polyetylene tubing. Vessels were gently pushed from the cannula onto the needles. The needles were then separated so that the lower one was attached with thread to a stationary glass rod and the upper one was tied with thread to the transducer. […] An initial optimum resting force of 1 gm was applied to the saphenous vein. Isometric contractions were recorded as changes in grams of force on a Beckman Dynograph with Statham UC-3 transducers and microscale accessory attachments. Tissues were allowed to equilibrate 1 to 2 hours before exposure to drugs. Cumulative agonist concentration-response curves were generated in tissues and no tissue was used to generate more than two agonist concentration-response curves. […] This vasoconstriction assay measures two important parameters, saphenous vein contraction (EC50) and maximal contraction as a % maximal KCl response (%max KCl).

Q: How did the “corrected vasoconstriction EC50” value (EC50 divided by %max KCl) turn out when `CNS(=O)(=O)Cc1ccc2[nH]cc(CCN(C)C)c2c1` [sumatriptan] was run?
A: The value was 10.3 nM.

Q: And the pEC50 (Oryctolagus cuniculus)?
A: Its pEC50 is 6.18.
